Among the data in patent US20240109900A1, “AZABICYCLIC SHP2 INHIBITORS” (IRBM S.P.A., priority 2021, published 2024) are IC50 values, retold here.

Where two headings read alike, the source gives them in different places.

Assay [1] has as its target SHP-2 enzyme (Met1-Leu525) (Homo sapiens (Human), UniProt Q06124). In words: SHP2 inhibition enzymatic assay. Conditions: 0.5 nM SHP-2 activated by 500 nM IRS1 peptide, 75 μM DiFMUP substrate; read-out: SHP2wt-IC50. Type of assay: biochemical. The gist of the method:
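SHP-2 (Met1-Leu525), 0.5 nM, activated with 500 nM IRS1 bis-phosphopeptide, preincubated 30 min with compounds in HEPES pH 7.2 buffer with 5 mM DTT. 75 μM DiFMUP added for 30 min at room temperature, stopped with bpV; fluorescence read. IC50 from four-parameter logistic fit of % inhibition.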

Assay [2] concerns ERK phosphorylation in KYSE-520 cells. In words: Phospho-ERK cellular assay. Type of assay: cell-based. The conditions noted are these: read-out: PERK IC50. Put shortly:
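TR-FRET read-out of ERK1/2 Thr202/Tyr204 phosphorylation was taken after overnight antibody incubation at room temperature. Before that, KYSE-520 cells were treated 2 h at 37 °C with compound dilutions and lysed 30 min. Percent inhibition relative to vehicle and cell-free wells was fitted four-parametrically to give IC50.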

[3] abbreviates: Homo sapiens, KYSE-520, 2 h, KYSE-520 cells, 2 h at 37° C., phospho-ERK1/2 (Thr202/Tyr204) TR-FRET.
The mark [4] stands for this setting: KYSE-520 cells, 2 h at 37° C., phospho-ERK1/2 (Thr202/Tyr204) TR-FRET.

SHP-2 enzyme (Met1-Leu525), sequence (Q06124 1-525): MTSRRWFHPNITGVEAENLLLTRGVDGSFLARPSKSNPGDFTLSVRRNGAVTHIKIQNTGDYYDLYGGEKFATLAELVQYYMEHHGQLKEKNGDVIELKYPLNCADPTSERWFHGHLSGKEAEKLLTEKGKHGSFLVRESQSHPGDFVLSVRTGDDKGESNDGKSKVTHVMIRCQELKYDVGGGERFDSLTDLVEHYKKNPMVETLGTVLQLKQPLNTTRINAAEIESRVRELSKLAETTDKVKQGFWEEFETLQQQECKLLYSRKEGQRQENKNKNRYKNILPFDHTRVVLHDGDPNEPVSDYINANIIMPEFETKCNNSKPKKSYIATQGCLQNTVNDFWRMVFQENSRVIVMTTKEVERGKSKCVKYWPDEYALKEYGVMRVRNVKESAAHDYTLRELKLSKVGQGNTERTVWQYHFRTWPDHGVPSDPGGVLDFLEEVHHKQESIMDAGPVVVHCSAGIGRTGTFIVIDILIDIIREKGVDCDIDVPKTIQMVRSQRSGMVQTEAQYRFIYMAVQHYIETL

Take `Cc1cccc([C@@]2(CN)[C@@H]3CN(c4cnc5c(-c6ccc7nn(C)cc7c6Cl)n[nH]c5n4)C[C@@H]32)n1` [Example 496, ((1R,5S,6r)-3-(3-(4-chloro-2-methyl-2H-indazol-5-yl)-1H-pyrazolo[3,4-b]pyrazin-6-yl)-6-(6-methylpyridin-2-yl)-3-azabicyclo[3.1.0]hexan-6-yl)methanamine]: the IC50 (as a rule, the concentration needed to halve the response being measured) in assay [1] is < 500 nM; in assay [2] (setting [3]), < 1000 nM.
`Cc1csc([C@@]2(CN)[C@@H]3CN(c4cnc5nc(Sc6ccnc(N)c6Cl)ccc5n4)C[C@@H]32)n1` [Example 497, 4-((2-((1R,5S,6r)-6-(aminomethyl)-6-(4-methylthiazol-2-yl)-3-azabicyclo[3.1.0]hexan-3-yl)pyrido[2,3-b]pyrazin-6-yl)thio)-3-chloropyridin-2-amine]: the figures for the IC50 in assay [1] and in assay [2] (setting [3]) were < 500 nM and < 1000 nM, respectively.
For `Cc1csc([C@@]2(CN)[C@@H]3CN(c4cnc(Sc5ccnc(N)c5Cl)cn4)C[C@@H]32)n1` [Example 498, 4-((5-((1R,5S,6r)-6-(aminomethyl)-6-(4-methylthiazol-2-yl)-3-azabicyclo[3.1.0]hexan-3-yl)pyrazin-2-yl)thio)-3-chloropyridin-2-amine], in that order: < 500 nM and < 1000 nM.
For `Cn1cc2c(Cl)c(-c3n[nH]c4nc(N5C[C@@H]6[C@H](C5)[C@@]6(CN)c5ccccc5F)cnc34)ccc2n1` [Example 499, ((1R,5S,6s)-3-(3-(4-chloro-2-methyl-2H-indazol-5-yl)-1H-pyrazolo[3,4-b]pyrazin-6-yl)-6-(2-fluorophenyl)-3-azabicyclo[3.1.0]hexan-6-yl)methanamine] the same measures were < 500 nM and < 1000 nM.
On to `COc1nccc(-c2n[nH]c3nc(N4CC[C@@H]5[C@H](C4)[C@@]5(CN)c4ccccc4F)cnc23)c1Cl` [Example 500], for which the values for the 50% inhibitory concentration (IC50) in assay [1] and in assay [2] (setting [4]) were < 500 nM and < 1000 nM, respectively.
With `Cc1nnc([C@@]2(CN)[C@@H]3CN(c4cnc5c(-c6ccc7nn(C)cc7c6Cl)n[nH]c5n4)C[C@@H]32)s1` [Example 501, ((1R,5S,6r)-3-(3-(4-chloro-2-methyl-2H-indazol-5-yl)-1H-pyrazolo[3,4-b]pyrazin-6-yl)-6-(5-methyl-1,3,4-thiadiazol-2-yl)-3-azabicyclo[3.1.0]hexan-6-yl)methanamine], the IC50 is < 500 nM in assay [1] and < 1000 nM in assay [2] (setting [3]).
Regarding `Cc1csc(C2(CN)[C@@H]3CN(c4cnc5c(-c6ccc(C(N)=O)c7ncccc67)n[nH]c5n4)C[C@@H]32)n1` (stereo partly shown) [Example 504], the values for the IC50 in assay [1] and in assay [2] (setting [4]) were < 500 nM and < 1000 nM, respectively.
Turning to `Cc1csc([C@@]2(CN)[C@@H]3CN(c4cnc5c(-c6ccc7n[nH]cc7c6Cl)n[nH]c5n4)C[C@@H]32)n1` [Example 505], the IC50 in assay [1] is < 500 nM; in assay [2] (setting [4]), < 1000 nM.
`Cc1csc([C@@]2(CN)[C@@H]3CN(c4cnc5c(-c6ccc7c(cnn7C(F)F)c6Cl)n[nH]c5n4)C[C@@H]32)n1` [Example 506]: the IC50 in assay [1] is < 500 nM; in assay [2] (setting [4]), < 1000 nM.
Consider `NC[C@]1(c2ccccc2F)[C@@H]2CCN(c3cnc4c(-c5ccc(F)c6ncccc56)c[nH]c4n3)C[C@@H]21` [Example 507, ((1S,6R,7R)-7-(2-fluorophenyl)-3-(7-(8-fluoroquinolin-5-yl)-5H-pyrrolo[2,3-b]pyrazin-3-yl)-3-azabicyclo[4.1.0]heptan-7-yl)methanamine], for which the IC50 is < 500 nM in assay [1] and < 1000 nM in assay [2] (setting [3]).
Consider `NC[C@]1(c2ccccc2F)[C@@H]2CCN(c3cnc4c(-c5ccc(S(=O)(=O)F)c6ncccc56)n[nH]c4n3)C[C@@H]21` [Example 508, 5-(6-((1S,6R,7R)-7-(aminomethyl)-7-(2-fluorophenyl)-3-azabicyclo[4.1.0]heptan-3-yl)-1H-pyrazolo[3,4-b]pyrazin-3-yl)quinoline-8-sulfonyl fluoride], for which the IC50 was < 500 nM in assay [1] and < 1000 nM in assay [2] (Homo sapiens, KYSE-520, 2 h).
